Measured values as given in patent publication US20140249165A1, “PURINE DERIVATIVES FOR TREATMENT OF CYSTIC DISEASES” (Genzyme Corporation, priority 2006, published 2014).
Where two headings read alike, the source gives them in different places.

Legend:
MDCK cysts = conditions: read-out: IC50 of inhibition of cystic growth; MDCK cysts in 3D collagen I gel, 96 hours incubation, Alamar Blue
jck kidney = test: PCNA and TUNEL staining of jck kidney sections; assay type: in vivo, mouse; conditions: Roscovitine treated jck kidney
cpk model of PKD = conditions: cpk mice, 100 mg/kg IP daily, day 7 till day 21
[1] = tested on: cystic kidneys (cell cycle and transcription proteins); test: Western blot analysis of cystic kidney protein extracts; assay type: in vivo, mouse; conditions: cystic kidneys of treated mice
Experimental: Kidneys were homogenized in RIPA buffer (10 mM HEPES, pH 8.0, 100 mM NaCl, 1% Triton X-100, 0.1% SDS, 0.5% sodium deoxycholate, 1 mM DTT, 1 mM EDTA, 1 mM NaF, 1 mM Na3VO4) with Complete™ protease inhibitor cocktail (Roche Diagnostic GmbH, Mannheim, Germany). 30 μg of protein samples were separated in 4-12% SDS/acrylamide gels (Invitrogen, Carlsbad, Calif.). Gels were soaked in transfer buffer (192 mM glycine, 25 mM Tris, 10% methanol, pH 8.3) and transferred to Immobilone-P membranes (Millipore Corporation, Bedford, Mass.). Membranes were rehydrated with methanol and incubated in blocking buffer (5% powdered milk or 3% BSA in PBS) for 30 min. Membranes were incubated overnight at 4° C. with primary antibodies against RNApolII-p, p35/p25 (Abcam, Cambridge, Mass.); Rb-p, cycD1, cycD1-p, ERK2, ERK1/2-p (Cell Signaling, Danvers, Mass.); Rb2, RBBP, cycD3, caspase-2, caspase-3, ApaF1, Bcl-2, Bcl-XL, BAD (BD Biosciences, San Jose, Calif.); CDK7, CDK9, PCNA, GAPDH (US Biologicals, Swampscott, Mass.); cycD2 (BioSource International, Camarillo, Calif.), washed in TBST and incubated with HRP-labeled secondary antibodies as recommended by the manufacturer Immunoreactive proteins were detected using enhanced chemi-luminescence (Amersham Pharmacia Biotech, Little Chalfont Buckinghamshire, England).

[2] = jck female, 150 mg/kg IP daily, continuous 5 W
[3] = jck male, 50 mg/kg IP daily, continuous 5 W
[4] = jck male, 150 mg/kg IP daily, continuous 5 W (Table 2)
[5] = jck male, 150 mg/kg, daily dosing for 5 weeks (Table 2a)
[6] = jck male, 150 mg/kg, pulse treatment 5 W (1/1): 1 week on, 1 week off for 5 weeks
[7] = jck male, 150 mg/kg, pulse treatment 5 W (3/2): 3 weeks on, 2 weeks off

## CC[C@H](CO)Nc1nc(N(C)Cc2ccccc2)c2ncn(C(C)C)c2n1
MDCK cysts
  IC50: 190 µM

## CC[C@H](CO)Nc1nc(NCc2ccccc2)c2ncn(C(C)C)c2n1 [Roscovitine, 6-benzylamino-2-(R)-[(1-ethyl-2-hydroxy)ethylamino]-9-isopropylpurine]
Jck kidney; PCNA immunostaining
  PCNA-positive cells: quantitative reduction in PCNA-positive cells
Jck kidney; TUNEL staining
  TUNEL-positive cells: reduced the number of TUNEL-positive cells
Cpk model of PKD
  BUN: 54.58 ± 9.60 mg/dL
  Body weight: 9.75 ± 1.00 g
  Creatinine: 0.29 ± 0.07 mg/dL
  Cystic volume: 14.62 ± 2.16 % BW
[1]
  Cyclin D2 and D3 expression: downregulated
  Level of ERK 1/2 activation: decreasing the level of ERK 1/2 activation
  Levels of Rb associated proteins Rb2 and RBB2: normalized
  Phosphorylation level of cyclin D1 (Thr-286): normalized phosphorylation level of cyclin D1
  Rb phosphorylation: dephosphorylation of Rb3
[1]; vs WT controls
  RNA pol II phosphorylation: reduced levels of RNA pol II phosphorylation
Jck mouse model of PKD; [2]
  BUN: 31.09 ± 6.12 mg/dL
  Body weight: 19.79 ± 0.80 g
  Cystic volume: 0.74 ± 0.24 % BW
Jck mouse model of PKD; [3]
  BUN: 51.25 ± 10.19 mg/dL
  Body weight: 20.54 ± 1.66 g
  Cystic volume: 2.25 ± 0.66 % BW
Jck mouse model of PKD; [4]
  BUN: 26.78 ± 3.31 mg/dL
  Body weight: 21.52 ± 1.78 g
  Cystic volume: 0.98 ± 0.15 % BW
Jck mouse model of PKD; [5]
  BUN: 28.89 ± 7.51 mg/dL
  Body weight: 22.33 ± 1.05 g
  Cystic volume: 1.10 ± 0.41 % BW
Jck mouse model of PKD; [6]
  BUN: 43.90 ± 13.08 mg/dL
  Body weight: 22.14 ± 1.10 g
  Cystic volume: 1.28 ± 0.22 % BW
Jck mouse model of PKD; [7]
  BUN: 27.60 ± 4.32 mg/dL
  Body weight: 22.77 ± 0.39 g
  Cystic volume: 1.29 ± 0.40 % BW
Jck mouse model of PKD; jck mice, 50 mg/kg
  BUN: reduced
Jck mouse model of PKD; jck mice, 150 mg/kg
  BUN: normalized
Jck mouse model of PKD; jck mice, 50 or 150 mg/kg IP
  Tolerability (weight loss, mortality, toxicity): well tolerated with no weight loss, mortality or toxicity
Jck mouse model of PKD; jck mice, daily for one week followed by one week off, total of 5 weeks
  Cystogenesis with intermittent dosing: reduction of cystogenesis was detected
Jck mouse model of PKD; jck/jck males, 150 mg/kg daily for 3 weeks, followed by 2 weeks without treatment
  Anti-cystic effect after drug withdrawal: long lasting anti-cystic effect was detected with normalized levels of BUN
